Measured values taken from article PMC7284125, “Identification of annotated bioactive molecules that impair motility of the blood fluke Schistosoma mansoni” (International Journal for Parasitology: Drugs and Drug …, 2020).
Like-named read-outs stand apart in the source and are kept apart here.

Key:
SmD2 = SmD2 (Schistosoma mansoni, UniProt G4LUJ1); assay: cell-based; type: cell-based; settings: for IC50: inhibition of EPN-evoked luminescence, SmD2 expressing HEK293 cells, read-out: IC50
S. mansoni adult worms = assay: Motility assay on adult parasites (pixel displacement, relative to DMSO control); type: cell-based, Schistosoma mansoni; settings: secondary screen, 10 μM
In short: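 Unpaired adult worms from mice 6 weeks post-infection kept in OPTI-MEM with 5% dialyzed FBS and exposed to compounds at 1 and 10 μM for 24 h. Motility filmed 1 min at 10 frames/s, quantified by pixel displacement versus DMSO-treated worms; recovery followed up to five days after washout.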

[1] = tested on: S. mansoni schistosomulae; assay: Motility assay on schistosomulae (pixel displacement, relative to DMSO control); type: cell-based, Schistosoma mansoni; settings: for activity at 1 µM: Schistosoma mansoni, read-out: Fractional motility; for motility in extended assay with reduced incubation times, in words: three-day old schistosomulae, incubation 1 h, 3 h, 6 h
In short: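 Motility was scored by pixel displacement from 1-min videos (10 frames/s) and compared with DMSO controls. Schistosomulae (200/well, Opti-MEM, 5% dialyzed FBS, no antibiotics) received compound at 1 or 10 μM for 24 h; selected hits were also followed at 1, 3, 6 and 12 h.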

[2] = tested on: S. mansoni schistosomulae; assay: Phenotypic primary screen assay on schistosomulae (phenotype; viability by methylene blue dye exclusion); type: cell-based; settings: Schistosoma mansoni; three-day-old schistosomulae, 10 μM, 24 h; calculated 5 days post compound exposure; read-out: Viability (%)
[3] = tested on: S. mansoni schistosomulae; assay: as above; type: cell-based, Schistosoma mansoni; settings: three-day-old schistosomulae, 10 μM, 24 h; estimated 5 days post compound exposure
In short: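 Parasites lacking contraction/relaxation cycles and showing dark internal granulations counted as dead. Movement and body shape were compared with DMSO-treated controls under a stereo microscope at 24 h and at five days of exposure. Larvae came from infected snails shed under light for 2 h at 32 °C.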

[4] = 120 h, schistosomulae, secondary screen, 24h exposure, read at D5, 1 µM
[5] = schistosomulae, secondary screen, 24h exposure, read at D1, 1 µM
[6] = schistosomulae, 1h exposure, read at D1, 10 µM
[7] = schistosomulae, 1h exposure, read at D5, 10 µM
[8] = schistosomulae, 3h exposure, read at D1, 10 µM
[9] = schistosomulae, 3h exposure, read at D5, 10 µM
[10] = schistosomulae, 6h exposure, read at D1, 10 µM
[11] = schistosomulae, 6h exposure, read at D5, 10 µM
[12] = schistosomulae, secondary screen, 24h exposure, read at D1, 10 µM
[13] = schistosomulae, secondary screen, 24h exposure, read at D5, 10 µM
[14] = NPS-2143 and analogs, 24h, D1, 10 µM
[15] = NPS-2143 and analogs, 24h, D5, 10 µM
[16] = 120 h, NPS-2143 and analogs, 24h, D5, 1 µM
[17] = NPS-2143 and analogs, 24h, D1, 1 µM

Chain of SmD2 (G4LUJ1 entry or part of it): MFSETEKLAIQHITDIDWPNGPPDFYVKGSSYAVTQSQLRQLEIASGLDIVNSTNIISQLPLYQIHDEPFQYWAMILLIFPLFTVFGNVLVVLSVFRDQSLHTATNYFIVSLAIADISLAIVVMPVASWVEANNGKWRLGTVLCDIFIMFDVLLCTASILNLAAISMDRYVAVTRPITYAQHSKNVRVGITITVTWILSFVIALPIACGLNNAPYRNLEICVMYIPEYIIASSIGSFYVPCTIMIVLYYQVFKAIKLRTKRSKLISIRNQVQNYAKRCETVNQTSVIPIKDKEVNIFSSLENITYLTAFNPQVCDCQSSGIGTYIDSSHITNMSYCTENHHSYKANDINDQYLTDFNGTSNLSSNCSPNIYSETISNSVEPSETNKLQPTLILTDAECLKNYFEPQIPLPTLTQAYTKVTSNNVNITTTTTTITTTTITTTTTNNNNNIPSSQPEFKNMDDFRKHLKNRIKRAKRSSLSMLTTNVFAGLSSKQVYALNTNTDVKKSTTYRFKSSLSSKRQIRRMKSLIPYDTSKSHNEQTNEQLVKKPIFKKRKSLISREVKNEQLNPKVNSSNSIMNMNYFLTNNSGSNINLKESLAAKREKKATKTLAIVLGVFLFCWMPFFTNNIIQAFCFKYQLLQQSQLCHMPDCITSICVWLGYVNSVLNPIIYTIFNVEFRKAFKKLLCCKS

For `CNCCc1ccc(O)c(O)c1` [EPN, epinine], the EC50 (SmD2; luminescent cAMP signal, agonist) was 2520 ± 1120 nM.
`COCCn1c2c([n+](Cc3cnccn3)c1C)C(=O)c1ccccc1C2=O` [YM155] was tested, and the Fractional motility (S. mansoni adult worms; D1, Female adult worms) was 0.22, the Fractional motility (S. mansoni adult worms; D1, Male adult worms) was 1.90 and the Fractional motility (S. mansoni adult worms; D5, Female adult worms) was -0.79. The Fractional motility (S. mansoni adult worms; D5, Male adult worms) was 0.70, the activity at 1 µM [1, 4] was -82% and the activity at 1 µM [1, 5] was -73%. It also gave a Fractional motility [1, 6] of -0.48, a Fractional motility [1, 7] of -0.85 and a Fractional motility [1, 8] of -0.70. It also gave a Fractional motility [1, 9] of -0.96, a Fractional motility [1, 10] of 1.86 and a Fractional motility [1, 11] of -1.00. For the same compound, the Fractional motility [1, 12] was -0.91, the Fractional motility [1, 13] was -1.00 and the “motility in extended assay with reduced incubation times, in words” value [1] was “significant and sustained hypomotility”. For the same compound, the viability at 10 µM [2] was 40% and the Phenotype [3] was “big, granulated”.
In the case of `O=C1Cc2cc(CCN3CCN(c4nsc5ccccc45)CC3)c(Cl)cc2N1` [Ziprasidone], the Fractional motility (S. mansoni adult worms; D1, Female adult worms) is reported as 1.30, the Fractional motility (S. mansoni adult worms; D1, Male adult worms) is reported as 0.47 and the Fractional motility (S. mansoni adult worms; D5, Female adult worms) is reported as -0.12. For the same compound, the Fractional motility (S. mansoni adult worms; D5, Male adult worms) was 0.73, the activity at 1 µM [1, 4] was -73% and the activity at 1 µM [1, 5] was 0.0588%. It also gave a Fractional motility [1, 6] of 9.35, a Fractional motility [1, 7] of -0.16 and a Fractional motility [1, 8] of 8.26. The Fractional motility [1, 9] was -0.06, the Fractional motility [1, 10] was 0.49 and the Fractional motility [1, 11] was 0.31. The “hypermotility relative to control” value ([1]; schistosomulae, after 24 h incubation) was 11 ± 2 fold, the “motility phenotype in words” value ([1]; schistosomulae, long-term, five days after compound washout) was “all parasites became paralyzed” and the Fractional motility [1, 12] was 10.63. The Fractional motility [1, 13] was -1.00, the “motility in extended assay with reduced incubation times, in words” value [1] was “did not exhibit a significant change before the 24 hr incubation cut-off” and the viability at 10 µM [2] was 2.5%. The Phenotype [3] was “dark, granulated”.
Compound `COc1ccc(CCNCC(O)COc2ccccc2C2CC3CCC2C3)cc1OC` (centres unmarked) [compound 28] has a Fractional motility [1, 14] of -1.00, a Fractional motility [1, 15] of -1.00 and an activity at 1 µM [1, 16] of -67%. The activity at 1 µM [1, 17] was -69% and the IC50 (SmD2) was 27.2 nM.
In the case of `CC(=O)Nc1ccc(CCNCC(O)COc2cccc3ccccc23)cc1` (centres unmarked) [compound 31], the Fractional motility [1, 14] is reported as -0.82, the Fractional motility [1, 15] is reported as -0.79 and the activity at 1 µM [1, 16] is reported as -34%. The activity at 1 µM [1, 17] was -69% and the IC50 (SmD2) was 21.7 nM.
Compound `OC(CNCCc1ccccc1)COc1ccccc1C1CCCCC1` (centres unmarked) [compound 35] has a Fractional motility [1, 14] of -0.99 and an IC50 (SmD2) of 12.3 nM.
Compound `O=C(CCCN1CCC2(CC1)C(=O)NCN2c1ccccc1)c1ccc(F)cc1` [spiperone] has an IC50 (SmD2) of 1510 nM.
